Literature values, collected in publication PMC8513935.

Assays:
[1] = derived by the authors as gas->solvent minus gas->water (a hypothetical dry solvent; the ESI), not a two-phase measurement
[2] = experimental, compiled by the authors from the literature (the ESI cites the sources)

Structure (SMILES): CCCCCCCCCCCCCCCCCCCCO
- log K of transfer, water to solvent ([1]; Decan-1-ol, 25 C): 10.5 log10 K
- log K of transfer, water to solvent ([1]; Hexadecane, 25 C): 9.12 log10 K
- log K of transfer, water to solvent ([1]; Hexan-1-ol, 25 C): 10.5 log10 K
- log K of transfer, water to solvent ([1]; Octan-1-ol(dry), 25 C): 10.5 log10 K
- log K of transfer, water to solvent ([1]; Propan-2-ol, 25 C): 10.3 log10 K
- log K of transfer, gas to solvent ([2]; Decan-1-ol, 25 C): 12 log10 K
- log K of transfer, gas to solvent ([2]; Hexadecane, 25 C): 10.7 log10 K
- log K of transfer, gas to solvent ([2]; Hexan-1-ol, 25 C): 12.1 log10 K
- log K of transfer, gas to solvent ([2]; Octan-1-ol, 25 C): 12.1 log10 K
- log K of transfer, gas to solvent ([2]; Propan-2-ol, 25 C): 11.9 log10 K
- log K of transfer, gas to solvent ([2]; Water, 25 C): 1.54 log10 K

Structure (SMILES): c1ccc2ncccc2c1
- log K of transfer, water to solvent ([1]; Chloroform, 25 C): 2.78 log10 K
- log K of transfer, water to solvent ([1]; Hexadecane, 25 C): 1.26 log10 K
- log K of transfer, gas to solvent ([2]; Chloroform, 25 C): 6.98 log10 K
- log K of transfer, gas to solvent ([2]; Hexadecane, 25 C): 5.45 log10 K
- log K of transfer, gas to solvent ([2]; Water, 25 C): 4.2 log10 K

Structure (SMILES): C1CCCCC1
- log K of transfer, water to solvent ([1]; 1,2-Dichloroethane, 25 C): 3.69 log10 K
- log K of transfer, water to solvent ([1]; 2-Methylpropan-1-ol, 25 C): 3.73 log10 K
- log K of transfer, water to solvent ([1]; 2-Methylpropan-2-ol, 25 C): 3.59 log10 K
- log K of transfer, water to solvent ([1]; Acetone, 25 C): 3.5 log10 K
- log K of transfer, water to solvent ([1]; Benzene, 25 C): 3.87 log10 K
- log K of transfer, water to solvent ([1]; Butan-1-ol, 25 C): 3.63 log10 K
- log K of transfer, water to solvent ([1]; Butan-2-ol, 25 C): 3.57 log10 K
- log K of transfer, water to solvent ([1]; Butanone, 25 C): 3.65 log10 K
- log K of transfer, water to solvent ([1]; Butyronitrile, 25 C): 3.57 log10 K
- log K of transfer, water to solvent ([1]; CCl4, 25 C): 4.12 log10 K
- log K of transfer, water to solvent ([1]; Chlorobenzene, 25 C): 4.13 log10 K
- log K of transfer, water to solvent ([1]; Chloroform, 25 C): 4.16 log10 K
- log K of transfer, water to solvent ([1]; Cyclohexane, 25 C): 4.15 log10 K
- log K of transfer, water to solvent ([1]; Cyclohexanone, 25 C): 3.71 log10 K
- log K of transfer, water to solvent ([1]; Decan-1-ol, 25 C): 3.4 log10 K
- log K of transfer, water to solvent ([1]; Di-n-butyl ether, 25 C): 3.91 log10 K
- log K of transfer, water to solvent ([1]; Dichloromethane, 25 C): 3.91 log10 K
- log K of transfer, water to solvent ([1]; Diethyl Ether, 25 C): 3.97 log10 K
- log K of transfer, water to solvent ([1]; Ethanol, 25 C): 3.45 log10 K
- log K of transfer, water to solvent ([1]; Heptan-1-ol, 25 C): 3.63 log10 K
- log K of transfer, water to solvent ([1]; Hexadecane, 25 C): 3.86 log10 K
- log K of transfer, water to solvent ([1]; Hexan-1-ol, 25 C): 3.65 log10 K
- log K of transfer, water to solvent ([1]; Hexane, 25 C): 4 log10 K
- log K of transfer, water to solvent ([1]; Methanol, 25 C): 3.33 log10 K
- log K of transfer, water to solvent ([1]; Octan-1-ol(dry), 25 C): 3.61 log10 K
- log K of transfer, water to solvent ([1]; Pentan-1-ol, 25 C): 3.62 log10 K
- log K of transfer, water to solvent ([1]; Perfluoroalkane, 25 C): 2.86 log10 K
- log K of transfer, water to solvent ([1]; Propan-1-ol, 25 C): 3.45 log10 K
- log K of transfer, water to solvent ([1]; Propan-2-ol, 25 C): 3.43 log10 K
- log K of transfer, water to solvent ([1]; Propionitrile, 25 C): 3.41 log10 K
- log K of transfer, water to solvent ([1]; Tetrahydrofuran, 25 C): 4.03 log10 K
- log K of transfer, gas to solvent ([2]; 1,2-Dichloroethane, 25 C): 2.79 log10 K
- log K of transfer, gas to solvent ([2]; 2-Methylpropan-1-ol, 25 C): 2.83 log10 K
- log K of transfer, gas to solvent ([2]; 2-Methylpropan-2-ol, 25 C): 2.69 log10 K
- log K of transfer, gas to solvent ([2]; Benzene, 25 C): 2.97 log10 K
- log K of transfer, gas to solvent ([2]; Butan-1-ol, 25 C): 2.73 log10 K
- log K of transfer, gas to solvent ([2]; Butan-2-ol, 25 C): 2.67 log10 K
- log K of transfer, gas to solvent ([2]; Butanone, 25 C): 2.75 log10 K
- log K of transfer, gas to solvent ([2]; Butyronitrile, 25 C): 2.67 log10 K
- log K of transfer, gas to solvent ([2]; CCl4, 25 C): 3.22 log10 K
- log K of transfer, gas to solvent ([2]; Chlorobenzene, 25 C): 3.23 log10 K
- log K of transfer, gas to solvent ([2]; Chloroform, 25 C): 3.26 log10 K
- log K of transfer, gas to solvent ([2]; Cyclohexane, 25 C): 3.25 log10 K
- log K of transfer, gas to solvent ([2]; Cyclohexanone, 25 C): 2.81 log10 K
- log K of transfer, gas to solvent ([2]; Decan-1-ol, 25 C): 2.5 log10 K
- log K of transfer, gas to solvent ([2]; Di-n-butyl ether, 25 C): 3.01 log10 K
- log K of transfer, gas to solvent ([2]; Dichloromethane, 25 C): 3.01 log10 K
- log K of transfer, gas to solvent ([2]; Diethyl Ether, 25 C): 3.07 log10 K
- log K of transfer, gas to solvent ([2]; Ethanol, 25 C): 2.55 log10 K
- log K of transfer, gas to solvent ([2]; Heptan-1-ol, 25 C): 2.73 log10 K
- log K of transfer, gas to solvent ([2]; Hexadecane, 25 C): 2.96 log10 K
- log K of transfer, gas to solvent ([2]; Hexan-1-ol, 25 C): 2.75 log10 K
- log K of transfer, gas to solvent ([2]; Hexane, 25 C): 3.1 log10 K
- log K of transfer, gas to solvent ([2]; Methanol, 25 C): 2.43 log10 K
- log K of transfer, gas to solvent ([2]; Octan-1-ol, 25 C): 2.71 log10 K
- log K of transfer, gas to solvent ([2]; Pentan-1-ol, 25 C): 2.72 log10 K
- log K of transfer, gas to solvent ([2]; Perfluoroalkane, 25 C): 1.96 log10 K
- log K of transfer, gas to solvent ([2]; Propan-1-ol, 25 C): 2.55 log10 K
- log K of transfer, gas to solvent ([2]; Propan-2-ol, 25 C): 2.53 log10 K
- log K of transfer, gas to solvent ([2]; Propanone, 25 C): 2.6 log10 K
- log K of transfer, gas to solvent ([2]; Propionitrile, 25 C): 2.51 log10 K
- log K of transfer, gas to solvent ([2]; Tetrahydrofuran, 25 C): 3.13 log10 K
- log K of transfer, gas to solvent ([2]; Water, 25 C): -0.9 log10 K

Structure (SMILES): c1ccc2cnccc2c1
- log K of transfer, water to solvent ([1]; Chloroform, 25 C): 2.98 log10 K
- log K of transfer, water to solvent ([1]; Hexadecane, 25 C): 1.67 log10 K
- log K of transfer, gas to solvent ([2]; Chloroform, 25 C): 6.9 log10 K
- log K of transfer, gas to solvent ([2]; Hexadecane, 25 C): 5.59 log10 K
- log K of transfer, gas to solvent ([2]; Water, 25 C): 3.92 log10 K

Structure (SMILES): Cc1cncc(C)c1
- log K of transfer, water to solvent ([1]; Hexadecane, 25 C): 0.664 log10 K
- log K of transfer, gas to solvent ([2]; Hexadecane, 25 C): 4.21 log10 K
- log K of transfer, gas to solvent ([2]; Water, 25 C): 3.55 log10 K

Structure (SMILES): NC1CCCCC1
- log K of transfer, water to solvent ([1]; Hexadecane, 25 C): 0.426 log10 K
- log K of transfer, gas to solvent ([2]; Hexadecane, 25 C): 3.79 log10 K
- log K of transfer, gas to solvent ([2]; Water, 25 C): 3.37 log10 K

Structure (SMILES): Oc1cccc(F)c1
- log K of transfer, water to solvent ([1]; Hexadecane, 25 C): -0.738 log10 K
- log K of transfer, gas to solvent ([2]; Hexadecane, 25 C): 3.84 log10 K
- log K of transfer, gas to solvent ([2]; Water, 25 C): 4.58 log10 K

Structure (SMILES): C=CCCCCCCC
- log K of transfer, water to solvent ([1]; Hexadecane, 25 C): 5.58 log10 K
- log K of transfer, water to solvent ([1]; Octan-1-ol(dry), 25 C): 5.34 log10 K
- log K of transfer, gas to solvent ([2]; Hexadecane, 25 C): 4.07 log10 K
- log K of transfer, gas to solvent ([2]; Octan-1-ol, 25 C): 3.83 log10 K
- log K of transfer, gas to solvent ([2]; Water, 25 C): -1.51 log10 K

Structure (SMILES): OC12CC3CC(CC(C3)C1)C2
- log K of transfer, water to solvent ([1]; Hexadecane, 25 C): 0.484 log10 K
- log K of transfer, gas to solvent ([2]; Hexadecane, 25 C): 5.63 log10 K
- log K of transfer, gas to solvent ([2]; Water, 25 C): 5.15 log10 K

Structure (SMILES): CCCCCCN
- log K of transfer, water to solvent ([1]; Hexadecane, 25 C): 0.755 log10 K
- log K of transfer, gas to solvent ([2]; Hexadecane, 25 C): 3.65 log10 K
- log K of transfer, gas to solvent ([2]; Water, 25 C): 2.9 log10 K
